# Measured values taken from patent EP0237348A1, “Cell protection” (THE WELLCOME FOUNDATION LIMITED, priority 1986, dated 1987).
# Tested on: Myocaridal infarct size
# Assay: Myocardial infarct size after 90 minute LAD occlusion and reperfusion in anaesthetized dogs (ex vivo TTC / Evans blue dual perfusion)
# Parameters: species or system Male beagle dogs
# Details: for % Area at Risk * Infarcted: 10 mg/kg intravenously over five minutes beginning fifteen minutes prior to reperfusion, 90 minute LAD occlusion, infarct quantified 24 hours after occlusion, means ± standard error
# Description: Male beagle dogs (10-12 kg) were anaesthetized with pentobarbital sodium, intubated, and ventilated with room air via a Harvard respirator. Catheters for infusion and arterial blood pressure measurements were implanted in the left jugular vein and left carotial artery. A thoracotomy was performed at the fourth intercostal space, the heart suspended in a percardial cradle and the left anterior descending artery (LAD) isolated just below the first major diagonal branch. An electromagnetic flow probe was placed on LAD. A 90 minute occlusion of the LAD was produced by placing a snare of 1/0 silk sutre distel to the flow probe. Treatment was initiated intravenously fifteen minutes prior to release of this snare occlusion and continued for 45 minutes after release. The thoracotomy was closed, and the animals were allowed to recover from the surgical procedures. The animals were reanaesthetized 24 hours after the occlusion, and the flow in the LAD reassessed. Then the heart was removed for post mortem quantification of infarct size.
# Three groups of dogs were evaluated. Group 1 consisted of saline controls. Group 2 were administered allopurinol and group 3 were administered oxypurinol. Allopurinol and oxypurinol were dissolved, separately, in O.I.N. sodium hydroxide and back-titrated to pH 9.3. The formulations were adminstered intravenously over five minutes beginning fifteen minutes prior to reperfusion.
# Myocaridal infarct size was quantified by an ex vivo dual reperfusion technique. Cannulas were inserted into the LAD immediately distel to the site of occlusion and into the aorta above the coronary ostia. The LAD coronary bed that was perfused with 1.5% triphenyl tetrazolium hydrochloride (TTC) in 0.02 M potassium phosphate buffer, pH 7.4. The aorta was perfused in a retrograde manner with 0.5% Evans blue dye. Both regions ere perfused with their respective stains at a constant pressure of 100 mm mercury for five minutes. The heart was cut into 8 mm slices perpendicular to the apex-base axis. The area of the left ventrical at risk of infarction due to aatomical dependence on the LAD for blood flow is identified by the lack of Evans blue in this region. The region of infarcted myocardium within the area was demarcated by the lack of staining of the tissue when perfused with TTC due to a loss of dehydrogenase enzymes.
# The transverse ventricular sections were traced carefully on to clear acrylic overlays to provide a permanent record of infarcted methology and to allow planimetric confirmation of infarct size. Ventricular sections then were trimmed of right ventricular muscle, valvular, and fatty tissue. Total left ventricular, area at risk, and infarct was separated by careful dissection and weighted. Infarct size was expressed as a percentage of the anatomic area at risk. […]
Compound,% Area at Risk * Infarcted [%],"Reduction of area at risk (infarcted) compared with saline and allopurinol (10 mg/kg i.v. fifteen minutes prior to reperfusion, significance criterion p less than 0.05 (ANOVA, Bonferroni))","Reducing cellular injury when administered after ischemia (and before reperfusion) (administered after ischemia and before reperfusion, summary statement)"
Oc1ncnc2[nH]ncc12 [Allopurinol],43.1 ± 6.1,–,–
"O=c1[nH]c(=O)c2c[nH]nc2[nH]1 [Oxypurinol, 4,6-dihydroxypyrazola(3,4-d)pyrimidine]",19.0 ± 1.7,significantly reduced,effective
